Laboratory results reported in patent US8410064B2, “Classical cannabinoid metabolites and methods of use thereof” (priority 2009, dated 2013).

Assays:
human UGTs [1] = test: LC-MS/MS confirmation of glucuronidated products; type: in vitro ADME; conditions: recombinant protein, 750 μM substrate, UDP-glucuronic acid 4 mM, 180 min, negative ion mode
Description: FIG. 3 depicts a series of graphs illustrating RP-HPLC chromatographs of glucuronidated-product ion experiments. Tracings represent organic-soluble metabolites generated during incubation of recombinant protein with UDP-glucuronic acid (4 mM) and 750 μM of each substrate (A) Δ^9-THC, (B) CBN, (C) 11-OH-THC, (D) CBD, and (E) COOH-THC. Each substrate was incubated individually for 180 min. Control reactions omitted the respective substrate. MS/MS data were obtained in negative ion mode, as described in the Examples.
Liquid chromatography-tandem mass spectrometry (LC-MS/MS) analyses for product confirmation were performed using an Agilent 1100 HPLC system (Santa Clara. Calif.) which was interfaced with an API 4000 triple quadrupole (MS/MS) mass spectrometer (Applied Biosystems. Foster City. Calif.). Instrument operation and data acquisition was controlled through the Analyst software package (Version 1.4.2, Applied Biosystems). The HPLC system consisted of an autosampler, a binary pump, and a column oven. […]
Trace amounts of glucuronidated product was detected for all the substrates, but in some cases, where kinetic information could not be obtained, the physiological significance remains to be determined. […] In particular, the presence of bis- and/or diglucuronidated products was not detected.

human liver microsomes = test: Glucuronidation by human liver microsomes (activity screen); conditions: human liver microsomes (HLM); 750 μM substrate, UDP-GlcUA 4 mM, 90 min
[2] = molecular target: T1, recombinant human UGT2B17 (Homo sapiens, UniProt O75795); test: Glucuronidation by recombinant UGT2B17 (activity screen); conditions: 750 μM substrate, UDP-GlcUA 4 mM, 90 min
T1 sequence (O75795 24-530): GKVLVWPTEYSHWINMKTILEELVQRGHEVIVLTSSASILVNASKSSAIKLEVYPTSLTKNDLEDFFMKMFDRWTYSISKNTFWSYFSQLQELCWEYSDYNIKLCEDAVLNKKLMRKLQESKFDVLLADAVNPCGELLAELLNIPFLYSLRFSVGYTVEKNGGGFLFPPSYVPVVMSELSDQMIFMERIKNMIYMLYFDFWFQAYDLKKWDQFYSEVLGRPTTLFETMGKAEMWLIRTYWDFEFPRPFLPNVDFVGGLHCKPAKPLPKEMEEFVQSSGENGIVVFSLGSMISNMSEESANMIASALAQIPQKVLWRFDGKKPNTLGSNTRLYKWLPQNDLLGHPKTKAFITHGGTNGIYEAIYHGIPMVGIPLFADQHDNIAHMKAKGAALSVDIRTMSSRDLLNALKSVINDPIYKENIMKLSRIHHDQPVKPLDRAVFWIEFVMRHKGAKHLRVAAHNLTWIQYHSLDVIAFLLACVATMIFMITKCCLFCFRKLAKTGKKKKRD

recombinant human UGT2B7 = molecular target: T2, recombinant human UGT2B7 (Homo sapiens, UniProt P16662); test: Glucuronidation by recombinant UGT2B7 (activity screen); conditions: 750 μM substrate, UDP-GlcUA 4 mM, 90 min
T2 sequence (P16662 24-529): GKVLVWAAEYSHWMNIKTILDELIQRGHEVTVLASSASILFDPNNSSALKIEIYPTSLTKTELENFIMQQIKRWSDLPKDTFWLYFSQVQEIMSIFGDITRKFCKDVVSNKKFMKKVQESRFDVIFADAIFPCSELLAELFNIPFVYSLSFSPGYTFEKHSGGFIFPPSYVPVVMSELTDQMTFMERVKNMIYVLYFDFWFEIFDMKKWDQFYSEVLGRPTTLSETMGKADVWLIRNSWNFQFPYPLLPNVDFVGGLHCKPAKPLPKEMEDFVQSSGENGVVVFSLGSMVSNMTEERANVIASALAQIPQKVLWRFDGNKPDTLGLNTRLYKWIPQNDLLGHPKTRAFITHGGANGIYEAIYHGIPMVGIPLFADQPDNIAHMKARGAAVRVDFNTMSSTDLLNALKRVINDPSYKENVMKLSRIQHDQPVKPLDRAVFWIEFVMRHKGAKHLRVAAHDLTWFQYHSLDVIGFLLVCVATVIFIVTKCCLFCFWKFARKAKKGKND

recombinant human UGT1A9 = molecular target: T3, recombinant human UGT1A9 (Homo sapiens, UniProt O60656); test: Glucuronidation by recombinant UGT1A9 (activity screen and steady-state kinetics); conditions: 750 μM substrate, UDP-GlcUA 4 mM, 90 min
T3 sequence (O60656 26-530): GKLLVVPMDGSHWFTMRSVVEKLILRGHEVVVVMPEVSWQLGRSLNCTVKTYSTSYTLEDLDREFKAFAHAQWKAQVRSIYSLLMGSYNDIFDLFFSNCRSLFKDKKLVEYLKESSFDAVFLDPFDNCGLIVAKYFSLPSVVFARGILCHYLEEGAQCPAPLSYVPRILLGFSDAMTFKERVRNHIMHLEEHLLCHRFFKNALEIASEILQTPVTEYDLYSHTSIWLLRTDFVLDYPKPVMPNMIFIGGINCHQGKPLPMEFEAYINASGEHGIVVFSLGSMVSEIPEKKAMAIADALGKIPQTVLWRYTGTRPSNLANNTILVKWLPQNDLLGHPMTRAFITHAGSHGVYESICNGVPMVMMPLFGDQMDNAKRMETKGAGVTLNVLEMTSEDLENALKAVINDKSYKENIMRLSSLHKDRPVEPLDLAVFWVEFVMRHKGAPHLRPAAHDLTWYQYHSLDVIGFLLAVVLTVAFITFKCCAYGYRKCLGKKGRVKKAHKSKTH

human UGTs [3] = test: Glucuronidation activity across the tested human recombinant UGTs; conditions: 12 human recombinant UGTs; 750 μM substrate, UDP-GlcUA 4 mM, 90 min

| Compound | glucuronidated product detected by LC-MS/MS (human UGTs [1]) | glucuronidation activity (initial screen) (human liver microsomes) | glucuronidation activity (initial screen) [2] | glucuronidation activity (initial screen) (recombinant human UGT2B7) | glucuronidation activity (initial screen) (recombinant human UGT1A9) | glucuronidation activity (initial screen), overall (human UGTs [3]) |
| --- | --- | --- | --- | --- | --- | --- |
| Δ^9-Tetrahydrocannabinol [(−)-Δ^9-THC] | confirming the glucuronide production | – | – | – | – | – |
| C=C(C)[C@@H]1CCC(C)=C[C@H]1c1c(O)cc(CCCCC)cc1O [CBD, cannabidiol] | confirming the glucuronide production | minimal amount of a glucuronidated CBD product | minimal amount of a glucuronidated CBD product | minimal amount of a glucuronidated CBD product | minimal amount of a glucuronidated CBD product | limited |
